By pEC50 is commonly meant −log10 of the EC50, conventionally taken in molar units. Low readings indicate a high EC50, high ones a low EC50.

The structures appear in SMILES notation.

This test addresses T1, human ferroportin (Homo sapiens, UniProt Q9NP59).
T1 construct: luciferase reporter (probably NanoLuc, inferred from the Nano-Glo Luciferase Assay System read-out); expressed in transfected cells; host or cells: CHO cells, stably transfected, expression induced with doxycycline
T1 sequence (Q9NP59 1-571): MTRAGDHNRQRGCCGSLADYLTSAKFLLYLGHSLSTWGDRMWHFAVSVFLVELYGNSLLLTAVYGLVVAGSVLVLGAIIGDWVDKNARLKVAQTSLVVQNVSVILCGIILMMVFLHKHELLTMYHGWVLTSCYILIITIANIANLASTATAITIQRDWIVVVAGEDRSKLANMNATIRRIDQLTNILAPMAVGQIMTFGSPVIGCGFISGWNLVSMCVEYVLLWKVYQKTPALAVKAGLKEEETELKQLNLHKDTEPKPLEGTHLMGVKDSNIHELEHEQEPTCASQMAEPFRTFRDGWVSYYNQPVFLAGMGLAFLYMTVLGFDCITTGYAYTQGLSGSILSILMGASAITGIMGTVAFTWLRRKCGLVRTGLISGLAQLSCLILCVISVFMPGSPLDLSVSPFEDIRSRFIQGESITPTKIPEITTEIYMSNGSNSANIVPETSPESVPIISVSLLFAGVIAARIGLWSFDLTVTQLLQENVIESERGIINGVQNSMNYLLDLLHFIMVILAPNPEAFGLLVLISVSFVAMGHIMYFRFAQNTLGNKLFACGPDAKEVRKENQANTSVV
As to the kind of experiment: In-vitro ferroportin internalization assay (luciferase reporter). The test is classed as cell-based. Particulars: average pEC50; stably-transfected CHO cell line expressing human ferroportin tagged to a luciferase reporter; 6 h incubation with test compound. How it is done: The protocol for this assay is generally as described in WO2018/128828, incorporated herein by reference in its entirety. Functional internalization of ferroportin protein was measured using a stably-transfected CHO cell line expressing the human ferroportin tagged to a luciferase reporter. Cells were plated for 24 h in the presence of ferric ammonium citrate (FAC). Ferroportin protein expression was induced with doxycycline for 24 h. The next day, the compounds were added. Test compounds were dissolved in DMSO. Cells were incubated with the test compounds for 6 h, and subsequently luciferase activity was measured using the Nano-Glo Luciferase Assay System and Glomax (Promega, Madison, Wis.). The average pEC50 was determined for the test compounds.
For orientation: In a reporter assay the amount or activity of a reporter protein is the signal.
Turning to `CC(C#N)CN(C)c1nc(-c2ccccn2)nc2sc(-c3ccccc3)cc12` (stereo not drawn) [Compound 201, 2-methyl-3-{methyl[6-phenyl-2-(pyridin-2-yl)thieno[2,3-d]pyrimidin-4-yl]amino}propanenitrile], the pEC50 was determined as 6.
The value for `COc1ccc(NC(=O)C(C(C)C)N(C)c2nc(-c3ccccn3)nc3c2CCC3)cn1` (single isomer, unassigned) [Compound 316] was 7.2; that for `Cc1cccc(C)c1NC(=O)CN(C)c1nc(-c2ccccn2)nc(C)c1C` [Compound 195, 2-{[5,6-dimethyl-2-(pyridin-2-yl)pyrimidin-4-yl](methyl)amino}-N-(2,6-dimethylphenyl)acetamide] was 6.5; that for `Cc1cc(NC[C@@H](O)CN2CCCCC2)nc(-c2ccccn2)n1` [Compound 237, (2R)-1-{[6-methyl-2-(pyridin-2-yl)pyrimidin-4-yl]amino}-3-(piperidine-1-yl)propan-2-ol] was 5.4.
The value for `COc1ccc(NC(=O)CN(C)c2nc(-c3ccccn3)nc3sc(C)c(C)c23)cc1` [Compound 181, 2-{[5,6-dimethyl-2-(pyridin-2-yl)thieno[2,3-d]pyrimidin-4-yl](methyl)amino}-N-(4-methoxyphenyl)acetamide] was 7.2.
With `COc1ccnc(-c2nc3c(c(N(C)CC(=O)NC(C)(C)CO)n2)CCC3)c1` [Compound 136, N-(1-hydroxy-2-methylpropan-2-yl)-2-{[2-(4-methoxypyridin-2-yl)-5H,6H,7H-cyclopenta[d]pyrimidin-4-yl](methyl)amino}acetamide] the figure was 7.6; with `COc1ccnc(-c2nc3c(c(N(C)CC(=O)N[C@H]4CCC[C@@H]4O)n2)CCC3)c1` (single isomer, unassigned) [Compound 173], 6.8.
Molecule `Cc1nc(-c2ccccn2)nc(N(C)CCN(C)c2ccccc2)c1C` [Compound 196, N,5,6-trimethyl-N-{2-[methyl(phenyl)amino]ethyl}-2-(pyridin-2-yl)pyrimidin-4-amine] displayed a pEC50 of 6.7. This pEC50 and that of the molecule before are within 0.2 log units of each other.
For `O=C(NC1CCN(c2nc(-c3ccccn3)nc3scc(-c4ccccc4)c23)CC1)c1cccnc1` [Compound 191, N-{1-[5-phenyl-2-(pyridin-2-yl)thieno[2,3-d]pyrimidin-4-yl]piperidin-4-yl}pyridine-3-carboxamide], the pEC50 is 6.2.
With `c1ccc(-c2csc3nc(-c4ccccn4)nc(N4CCC4)c23)cc1` [Compound 204, 2-[4-(azetidin-1-yl)-5-phenylthieno[2,3-d]pyrimidin-2-yl]pyridine] the figure was 5.6.
`CN(CC(=O)N1CC2CC(C2)C1)c1nc(-c2cc(OCCO)ccn2)nc2c1CCC2` [Compound 433, 1-{3-azabicyclo[3.1.1]heptan-3-yl}-2-({2-[4-(2-hydroxyethoxy)pyridin-2-yl]-5H,6H,7H-cyclopenta[d]pyrimidin-4-yl}(methyl)amino)ethan-1-one] had a pEC50 of 8.1.
The value for `c1ccc(-c2nc3c(c(N4CCCOC5CCCC54)n2)CCC3)nc1` (stereo not drawn) [Compound 187, 2-(4-{octahydro-2H-cyclopenta[b][1,4]oxazepin-5-yl]-5H,6H,7H-cyclopenta[d]pyrimidin-2-yl)pyridine] was 6.8; that for `CC(C)[C@@H](C(=O)Nc1cnn(C)c1)N(C)c1nc(-c2ccccn2)nc2c1CCC2` (single isomer, unassigned) [Compound 318] was 7.2; that for `Cc1cc(NCCC(=O)NCc2ccncc2)nc(-c2ccccn2)n1` [Compound 235, 3-{[6-methyl-2-(pyridin-2-yl)pyrimidin-4-yl]amino}-N-[(pyridin-4-yl)methyl]propanamide] was 5.3.
With `Cc1sc2nc(-c3ccccn3)nc(N(C)CC(C)O)c2c1-c1ccccc1` (stereo not drawn) [Compound 197, 1-{methyl[6-methyl-5-phenyl-2-(pyridin-2-yl)thieno[2,3-d]pyrimidin-4-yl]amino}propan-2-ol] the figure was 6.3; with `c1ccc(-c2csc3nc(-c4ccccn4)nc(N4CCN(c5ccccn5)CC4)c23)cc1` [Compound 207, 1-[5-phenyl-2-(pyridin-2-yl)thieno[2,3-d]pyrimidin-4-yl]-4-(pyridin-2-yl)piperazine], 6; with `O=C1C(Nc2cc(C(F)(F)F)nc(-c3ccccn3)n2)CCN1c1ccccc1` (stereo not drawn) [Compound 228, 1-phenyl-3-{[2-(pyridin-2-yl)-6-(trifluoromethyl)pyrimidin-4-yl]amino}pyrrolidin-2-one], 5.7.
With `Cc1cc(NCCCn2ccnc2)nc(-c2ccccn2)n1` [Compound 229, N-[3-(1H-imidazol-1-yl)propyl]-6-methyl-2-(pyridin-2-yl)pyrimidin-4-amine] the figure was <5.0.
The molecule `CN(CC(=O)NC(C)(C)C)c1nc(-c2cc(OC[C@H](O)CO)ccn2)nc2c1CCC2` [Compound 484, N-tert-butyl-2-[(2-{4-[(2R)-2,3-dihydroxypropoxy]pyridin-2-yl}-5H,6H,7H-cyclopenta[d]pyrimidin-4-yl)(methyl)amino]acetamidede] yielded a pEC50 of 7.7.
The value for `CCN(CC)CCCNc1nc(-c2ccccn2)nc2scc(-c3ccccc3)c12` [Compound 202, N-[3-(diethylamino)propyl]-5-phenyl-2-(pyridin-2-yl)thieno[2,3-d]pyrimidin-4-amine] was 5.7; that for `CCN(CCO)c1nc(-c2ccccn2)nc2sc(C)c(-c3ccccc3)c12` [Compound 244, 2-{ethyl[6-methyl-5-phenyl-2-(pyridin-2-yl)thieno[2,3-d]pyrimidin-4-yl]amino}ethan-1-ol] was 5.4.
The molecule `Cc1cc(NC(=O)CN(C)c2nc(-c3ccccn3)nc3scc(-c4ccccc4)c23)no1` [Compound 238, N-(5-methyl-1,2-oxazol-3-yl)-2-{methyl[5-phenyl-2-(pyridin-2-yl)thieno[2,3-d]pyrimidin-4-yl]amino}acetamide] had a negative-log EC50 (pEC50) of 6.3.
With `Cc1sc2nc(-c3ccccn3)nc(N(C)CC(=O)Nc3cccnc3)c2c1C` [Compound 183, 2-{[5,6-dimethyl-2-(pyridin-2-yl)thieno[2,3-d]pyrimidin-4-yl](methyl)amino}-N-(pyridin-3-yl)acetamide] the figure was 7.1; with `CC(Nc1nc(-c2ccccn2)nc2scc(-c3ccccc3)c12)C(=O)NC(C)(C)C` (stereo not drawn) [Compound 215, N-tert-butyl-2-{[5-phenyl-2-(pyridin-2-yl)thieno[2,3-d]pyrimidin-4-yl]amino}propanamide], 6.8; with `COc1ccnc(-c2nc3c(c(N(C)CC(=O)N[C@H]4CCC[C@H]4O)n2)CCC3)c1` (single isomer, unassigned) [Compound 171], 7.2.
The value for `CCC1COCCN1c1nc(-c2ccccn2)nc2scc(-c3ccccc3)c12` (stereo not drawn) [Compound 198, 3-ethyl-4-[5-phenyl-2-(pyridin-2-yl)thieno[2,3-d]pyrimidin-4-yl]morpholine] was 6; that for `CC(C)C(C(=O)Nc1cnn(C)c1)N(C)c1nc(-c2ccccn2)nc2c1CCC2` (single isomer, unassigned) [Compound 317] was 7.1.
The value for `CS(=O)(=O)CCNc1nc(-c2ccccn2)nc2scc(-c3ccccc3)c12` [Compound 226, N-(2-methanesulfonylethyl)-5-phenyl-2-(pyridin-2-yl)thieno[2,3-d]pyrimidin-4-amine] was 5.8; that for `COCC(C)Nc1nc(-c2ccccn2)nc2sc(C)c(-c3ccccc3)c12` (stereo not drawn) [Compound 209, N-(1-methoxypropan-2-yl)-6-methyl-5-phenyl-2-(pyridin-2-yl)thieno[2,3-d]pyrimidin-4-amine] was 6; that for `NC(=O)NCCCCNc1nc(-c2ccccn2)nc2scc(-c3ccccc3)c12` [Compound 220, (4-{[5-phenyl-2-(pyridin-2-yl)thieno[2,3-d]pyrimidin-4-yl]amino}butyl)urea] was 6.
`CC(=O)N1CCN(c2nc(-c3ccccn3)nc3scc(-c4ccccc4)c23)CC1` [Compound 214, 1-{4-[5-phenyl-2-(pyridin-2-yl)thieno[2,3-d]pyrimidin-4-yl]piperazin-1-yl}ethan-1-one] returned a pEC50 of 5.8.
For `OCCOCCNc1nc(-c2ccccn2)nc2scc(-c3ccccc3)c12` [Compound 213, 2-(2-{[5-phenyl-2-(pyridin-2-yl)thieno[2,3-d]pyrimidin-4-yl]amino}ethoxy)ethan-1-ol], the pEC50 is reported as 5.7. The pEC50 values of the last two molecules are within 0.2 log units of each other.
With `Cc1sc2nc(-c3ccccn3)nc(NCCCO)c2c1-c1ccccc1` [Compound 192, 3-{[6-methyl-5-phenyl-2-(pyridin-2-yl)thieno[2,3-d]pyrimidin-4-yl]amino}propan-1-ol] the figure was 5.9.

The values are drawn from patent US20230226074A1, “METHODS OF USE FOR PYRIMIDINES AS FERROPORTIN INHIBITORS” (Global Blood Therapeutics, Inc., priority 2020, published 2023).
